Residue numbers refer to the chain shown, from its start. Where “and” joins values, the source holds several entries; their conditions need not be identical. Identical values can stand only once.

Experiment [1] addresses T1, hGAT1 (Homo sapiens, UniProt P30531).
T1 construct: expressed in transfected cells
Put plainly: [3H]GABA uptake inhibition at hGAT1 stably expressed in CHO Flp-In cells. Format: cell-based. The following applies: 30 nM [3H]GABA, 3 min, CHO Flp-In cells stably expressing hGAT1; read-out: IC50 hGAT1. Here is the method: CHO Flp-In and tsA201 cells were cultured at 37 °C in a humidified atmosphere of […] and 5% CO2. As previously described[38],[63], CHO Flp-In cells stably expressing the hGATs were cultured in Ham’s F12 Nutrient Mix supplemented with 10% FBS, 1% P/S and plasmocin (5 µg/mL) under the selection pressure of hygromycin B (200 µg/mL). DMEM with GlutaMAX-I supplemented with 10% FBS and 1% P/S was used as growth medium for the tsA201 cells, which were transfected with DNA constructs using PolyFect according to the manufacturer’s specifications (Qiagen, West Sussex, UK), but with half of the recommended reagent volumes.
Uptake assays were performed in PDL-coated white 96-well polystyrene cell culture microplates (PerkinElmer, Boston, MA, USA) as previously described[38],[63]. […] Assay buffer was HBSS supplemented with 20 mM HEPES, 1 mM CaCl2 and 1 mM MgCl2, pH 7.4. […] After termination, scintillation liquid (MicroScint-20, PerkinElmer) was added and the radioactivity measured in a TopCount NXT Microplate Scintillation Counter (PerkinElmer).
(§1) Data analysis and statistical evaluation were performed in GraphPad Prism 7.02 (GraphPad Software, San Diego, CA, USA). Concentration-uptake inhibition curves, generated from the radioligand-based uptake assays, were fitted by non-linear regression, using the equation for sigmoidal concentration–response with variable slope: Y = Bottom + (Top–Bottom)/(1 + 10^((logIC50 − X) × HillSlope)), where Y is the response, X is the logarithm of the concentration, Top and Bottom are the plateaus in same units as Y, logIC50 is the concentration giving a response halfway between Bottom and Top, and the HillSlope is the steepness of the curve. For the substrate concentration–response curves generated from the FMP assay, the same equation was used but with logEC50 instead for logIC50. Unless otherwise stated, data are presented as means ± S.E.M. of at least three independent pooled experiments performed in triplicates.

Experiment [2] has as its target T2, hBGT1 (Homo sapiens, UniProt P48065).
T2 construct: expressed in transfected cells
T2 sequence (P48065 1-614): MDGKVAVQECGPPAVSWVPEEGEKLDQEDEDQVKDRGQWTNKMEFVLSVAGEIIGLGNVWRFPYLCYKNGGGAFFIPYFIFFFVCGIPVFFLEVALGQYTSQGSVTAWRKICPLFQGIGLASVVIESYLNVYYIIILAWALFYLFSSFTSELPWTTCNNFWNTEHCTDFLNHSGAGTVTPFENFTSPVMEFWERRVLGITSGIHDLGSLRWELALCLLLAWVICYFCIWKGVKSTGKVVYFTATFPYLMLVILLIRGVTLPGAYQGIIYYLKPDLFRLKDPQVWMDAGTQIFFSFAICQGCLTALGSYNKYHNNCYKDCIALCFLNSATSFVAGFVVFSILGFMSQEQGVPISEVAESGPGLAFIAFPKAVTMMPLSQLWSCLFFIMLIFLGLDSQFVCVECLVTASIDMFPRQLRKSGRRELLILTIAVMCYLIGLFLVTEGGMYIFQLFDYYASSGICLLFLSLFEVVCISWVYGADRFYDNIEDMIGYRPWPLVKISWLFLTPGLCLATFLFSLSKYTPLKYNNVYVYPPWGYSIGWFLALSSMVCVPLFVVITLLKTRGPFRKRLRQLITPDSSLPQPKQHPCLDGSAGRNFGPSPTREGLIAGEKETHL
The experiment is described as follows: FLIPR Membrane Potential (FMP) assay at hBGT1 stably expressed in CHO Flp-In cells. Format: cell-based. As to conditions: for substrate character at hBGT1 in FMP assay: concentration-dependent increase in fluorescence signal; for Mean Rmax as % of GABA Rmax ± S.E.M. / EC50: hBGT1 stably expressed in CHO Flp-In cells; for Mean Rmax as % of GABA Rmax ± S.E.M.: FMP assay; for EC50: three independent experiments. As to the method: The fluorescence-based FMP assay was performed as previously described, for the functional characterization of the electrogenic transport of substrates via hBGT1. Briefly, CHO Flp-In cells stably expressing hBGT1 or hGAT1 were plated (~ 50,000 cells/well) into black PDL-coated 96-well plates with clear bottom (VWR, Radnor, PA, USA). The next day, the growth medium was removed, and cells were washed once with HBSS assay buffer and FMP Blue Dye (Molecular Devices, Crawley, UK), added, and incubated. Ligands were added via the NOVOStar plate reader (BMG Labtech GmbH, Offenburg, Germany), preheated to 37 °C, approximately 10 min before reading of the cell plate. The fluorescence signals were measured for 33.8 s upon ligand addition using an emission and excitation wavelength of […], respectively. Electrogenic transport of substrates via hBGT1 will lead to an influx of the negatively charged FMP Blue dye that will bind to intracellular proteins and lipids resulting in an increase in the fluorescence signal.
as §1

Experiment [3] concerns the target T3, hBGT1 E52Y (Homo sapiens, UniProt P48065, E52Y).
T3 sequence (P48065 1-614 E52Y): T2 sequence (P48065 1-614) with E52Y
Put plainly: cell-based. The following applies: 30 nM [3H]GABA, tsA201 cells, transient expression.

T1 sequence (P30531 whole entry): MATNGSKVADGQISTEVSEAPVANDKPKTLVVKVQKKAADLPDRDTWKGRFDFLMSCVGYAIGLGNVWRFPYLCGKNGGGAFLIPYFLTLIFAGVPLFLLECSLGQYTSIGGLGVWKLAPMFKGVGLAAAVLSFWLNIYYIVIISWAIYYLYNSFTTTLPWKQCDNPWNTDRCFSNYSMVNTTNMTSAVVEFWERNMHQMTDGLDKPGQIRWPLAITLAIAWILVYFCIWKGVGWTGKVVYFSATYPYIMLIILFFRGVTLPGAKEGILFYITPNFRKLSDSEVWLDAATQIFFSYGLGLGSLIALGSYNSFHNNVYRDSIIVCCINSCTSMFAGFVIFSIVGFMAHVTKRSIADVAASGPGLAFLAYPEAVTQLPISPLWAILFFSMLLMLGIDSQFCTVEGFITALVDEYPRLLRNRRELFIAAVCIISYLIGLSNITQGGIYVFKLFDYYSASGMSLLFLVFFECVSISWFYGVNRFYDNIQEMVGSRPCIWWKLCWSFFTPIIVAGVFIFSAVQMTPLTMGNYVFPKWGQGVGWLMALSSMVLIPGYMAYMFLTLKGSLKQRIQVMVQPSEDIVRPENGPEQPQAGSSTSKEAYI

As a reminder, the IC50 is the midpoint of a concentration-inhibition curve. For orientation: EC50 means the concentration at which the effect is half-maximal. Read a high EC50 as a less potent agent. Regarding `C[C@@H]1N=C(N)NC[C@@H]1C(=O)O` (single isomer, unassigned) [l-15a], in experiment [1], the IC50 is more than 1000 µM. In experiment [2], the “substrate character at hBGT1 in FMP assay” value (“substrate character at hBGT1” below) was “substrates for hBGT1”, the “Mean Rmax as % of GABA Rmax ± S.E.M.” value is 36 ± 2.9 % of GABA Rmax and the EC50 is 40 µM. In addition, the IC50 in experiment [3] (IC50 BGT1 E52Y) was more than 1000 µM.
For `CCN1CC(C(=O)O)CN=C1N.Cl` (stereo not shown) [compound 3], the IC50 is more than 1000 µM in experiment [1] and 152 µM in experiment [3] (IC50 BGT1 E52Y). In experiment [2], the “substrate character at hBGT1” value is “substrates for hBGT1”.
Turning to `Cl.NC1=NCC(C(=O)O)CN1Cc1ccccc1` (stereo not shown) [compound 4], the IC50 in experiment [1] was more than 1000 µM; in experiment [3] (IC50 BGT1 E52Y), 54 µM.
`NC1=NC=C(C(=O)O)CN1.O=C(O)C(F)(F)F` [compound 11]: the IC50 in experiment [1] is more than 1000 µM. Moreover, in experiment [2], the “substrate character at hBGT1” value is on record as “substrates for hBGT1”, the “Mean Rmax as % of GABA Rmax ± S.E.M.” value is 95 ± 4.0 % of GABA Rmax and it took 75 µM to reach a half-maximal effect (EC50). Further, in experiment [3] (IC50 BGT1 E52Y), the IC50 was more than 1000 µM.
As to `NC1=NCC(C(=O)O)CC1` (stereo not shown) [compound 2, 6-amino-2,3,4,5-tetrahydropyridine-3-carboxylic acid, reference compound], the IC50 in experiment [1] is 216 µM; in experiment [3] (IC50 BGT1 E52Y), 44 µM; in experiment [3] (pIC50 ± S.E.M. BGT1 E52Y), 37.2 µM. For the same compound, in experiment [2], the “substrate character at hBGT1” value is “substrates for hBGT1”. Besides, the “Mean Rmax as % of GABA Rmax ± S.E.M.” value in experiment [2] is 103 ± 3.9 % of GABA Rmax and 76 ± 2.7 % of GABA Rmax.
For the compound `NC1=NCC(C(=O)O)CN1` (stereo not shown) [ATPCA, 2-amino-1,4,5,6-tetrahydropyrimidine-5-carboxylic acid, reference compound], the figures for the IC50 in experiment [1] and in experiment [3] (IC50 BGT1 E52Y) were more than 1000 µM and 5.8 µM, respectively.
